Peptide text beside a SMILES is read from it. * marks the point of attachment. AMC = Cc1cc(=O)oc2cc(N*)ccc12; Cbz = O=C(OCc1ccccc1)*
Legend:
[1] = tested on: cathepsin L-type protease activity of hair extract; test: peptidyl-AMC protease assay of hair fibre extract; assay type: biochemical, human
Experimental: Hair fibres taken from approx. 5 mm from the scalps of male and female individuals, aged 25-35, were cleaned, dried and then ground in liquid N2, and homogenised with an Ystral Homogeniser (high shear) using a 10 mm probe in extraction buffer (50 mM Citrate-Phosphate pH6.0, 2M NaCl).
Triton X-100 (2% stock) was added to the homogenate to a final concentration of 0.1%, and intermittently mixed by gentle agitation and incubated on ice for 1 hour. Large hair debris was allowed to precipitate and the solution was centrifuged at 13000 rpm for 5 minutes to remove insoluble protein. The resulting supernatant, containing soluble protein was dialysed (MWCO ca […]) in 50 mM citrate-phosphate, pH 6.0. Glycerol was added to the dialysed extract to 20% (v/v). The extracts were then aliquotted and stored at −20° C. until required.
With the above information, it was decided to investigate the protease profile of the hair extracts with the use of more specific peptide substrates (peptidyl-7-amido-4-methylcoumarin (peptidyl-AMC) substrates). Seven peptidyl-AMC substrates were used to study the protease types within the hair extract. These were selected on the basis of their specificity for individual protease species.
Stock solutions of each peptidyl-AMC substrate (Bachem) were prepared at 10 mM in DMSO and stored in aliquots at 4° C. Each aliquot was diluted to 1 mM with MQ water, prior to use. All assays (100 μl final volume) were routinely conducted in triplicate. For the measurement of cysteine protease activity, the standard assay contained 50 mM citrate-phosphate buffer pH 6.0, 100 μM peptidyl-AMC, 5 mM cysteine and approximately 1 μg protein extract. The assays were initiated by the addition of substrate and incubated at 30° C. for 2 hours. The reactions were terminated with the addition of 1 ml ‘stop’ solution (100 mM sodium monochloroacetate, 30 mM sodium acetate, 70 mM acetic acid).
The hydrolysed AMC was measured with the use of a fluorimeter set to 370 nm (excitation) and 460 nm (emission). Protease activity was quantified using standard concentrations of AMC. The fluorescence of each substrate and the hair extract were also measured and these values subtracted from the final fluorescence of each reaction, to give the value of fluorescence increase due to AMC liberation.

human steroid sulphatase = target: T1, human steroid sulphatase (Homo sapiens, UniProt P08842); conditions: substrate cholesterol-3-sulphate; cited from earlier work
T1 sequence (P08842 22-583): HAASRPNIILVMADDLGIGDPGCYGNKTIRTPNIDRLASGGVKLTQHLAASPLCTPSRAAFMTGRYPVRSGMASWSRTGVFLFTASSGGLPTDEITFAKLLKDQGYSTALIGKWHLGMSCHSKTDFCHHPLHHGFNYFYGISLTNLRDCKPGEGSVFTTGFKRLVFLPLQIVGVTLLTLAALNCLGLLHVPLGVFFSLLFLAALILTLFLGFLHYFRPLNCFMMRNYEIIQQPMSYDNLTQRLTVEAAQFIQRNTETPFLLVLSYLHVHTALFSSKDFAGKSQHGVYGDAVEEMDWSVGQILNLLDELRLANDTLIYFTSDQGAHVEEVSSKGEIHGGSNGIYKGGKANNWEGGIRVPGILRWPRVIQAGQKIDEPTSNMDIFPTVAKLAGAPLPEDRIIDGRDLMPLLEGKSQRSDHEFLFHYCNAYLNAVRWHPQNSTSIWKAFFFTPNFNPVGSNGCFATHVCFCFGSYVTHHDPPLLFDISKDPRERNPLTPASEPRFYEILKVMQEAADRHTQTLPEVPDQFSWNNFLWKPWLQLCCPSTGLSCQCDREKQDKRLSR

[2] = hair fibre extract, substrate z-Phe-Arg-AMC

For `CC(C)C[C@H](NC(=O)[C@H]1O[C@@H]1C(=O)O)C(=O)NCCCCN=C(N)N` (relative stereo) [E-6464, L-trans-epoxysuccinyl-leucylamido(4-guanido)butane], the “inhibition of the z-Phe-Arg-AMC hydrolysing activity of hair extract” value [1, 2] was “potently inhibited”.

For `CC(C)CCC[C@@H](C)[C@H]1CC[C@H]2[C@@H]3CC=C4C[C@@H](OS(=O)(=O)O)CC[C@]4(C)[C@H]3CC[C@]12C` [cholesterol-3-sulphate], the Km (human steroid sulphatase) is given as 5 µM.

For `N[C@@H](CS)C(=O)O` [cysteine], the “stimulation of the z-Phe-Arg-AMC hydrolysing activity of hair extract” value [1, 2] was “stimulated”.

With `Cc1cc(=O)oc2cc(NC(=O)C(CCCN=C(N)N)NC(=O)C(Cc3ccccc3)NC(=O)OCc3ccccc3)ccc12` (stereo not drawn) [z-Phe-Arg-AMC] (Cbz-Phe-Arg-{AMC}; configuration not given here) the “apparent Vmax of cathepsin L-type activity” value ([1]; hair extract, 1 mg of extract from approx. 9 g hair) was 1.66 nmoles AMC produced per minute per mg hair extract and the “hydrolysis by the hair extracts compared with the other peptidyl-AMC substrates” value ([1]; seven peptidyl-AMC substrates, 100 μM, pH 6.0, 30° C., 2 hours) was “most hydrolysed”.

Source: patent US6399052B2, “Treating hair by targeting enzymes” (Unilever Home & Personal Care USA division of Conopco, Inc., priority 1999, dated 2002)
